Laboratory results reported in patent publication US20240246942A1, “KINASE INHIBITORS FOR THE TREATMENT OF NEURODEGENERATIVE DISEASES” (priority 2020, published 2024).

Legend:
Test in all cases: biochemical
[1] = target: T1, panel of 374 wild-type kinases (Homo sapiens, UniProt O75116); conditions: read-out: % Enzyme Activity (relative to DMSO controls), kinase ROCK2
T1 construct: purchased Reaction Biology Corporation

[2] = target: T2, panel of 374 wild-type kinases (Homo sapiens, UniProt P30530); conditions: read-out: % Enzyme Activity (relative to DMSO controls), AXL
T2 construct: purchased Reaction Biology Corporation
T2 sequence (P30530 26-894): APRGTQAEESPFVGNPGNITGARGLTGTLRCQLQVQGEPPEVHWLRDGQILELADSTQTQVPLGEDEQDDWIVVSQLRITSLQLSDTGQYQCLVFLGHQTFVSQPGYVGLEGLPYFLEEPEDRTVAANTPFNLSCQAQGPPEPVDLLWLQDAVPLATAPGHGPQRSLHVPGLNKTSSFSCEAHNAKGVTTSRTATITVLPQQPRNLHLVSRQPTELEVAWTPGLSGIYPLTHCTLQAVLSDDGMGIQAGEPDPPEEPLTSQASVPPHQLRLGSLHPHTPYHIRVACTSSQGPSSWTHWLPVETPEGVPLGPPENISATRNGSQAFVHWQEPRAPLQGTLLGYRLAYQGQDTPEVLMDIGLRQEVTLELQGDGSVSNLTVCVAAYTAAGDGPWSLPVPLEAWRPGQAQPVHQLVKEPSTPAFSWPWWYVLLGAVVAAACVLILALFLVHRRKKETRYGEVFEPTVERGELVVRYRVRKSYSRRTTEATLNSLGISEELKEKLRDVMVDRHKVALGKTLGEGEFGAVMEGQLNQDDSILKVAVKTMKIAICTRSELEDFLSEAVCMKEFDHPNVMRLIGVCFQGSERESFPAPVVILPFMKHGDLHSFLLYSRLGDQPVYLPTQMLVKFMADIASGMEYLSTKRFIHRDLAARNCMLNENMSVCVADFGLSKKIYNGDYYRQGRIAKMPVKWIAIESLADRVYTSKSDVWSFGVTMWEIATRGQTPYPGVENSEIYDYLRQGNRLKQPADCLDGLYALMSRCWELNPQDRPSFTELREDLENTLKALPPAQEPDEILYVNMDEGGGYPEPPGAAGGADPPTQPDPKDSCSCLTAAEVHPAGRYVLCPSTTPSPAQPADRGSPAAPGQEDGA

[3] = target: T3, panel of 374 wild-type kinases (Homo sapiens, UniProt P36894); conditions: read-out: % Enzyme Activity (relative to DMSO controls), ALK3/BMPR1A
T3 construct: purchased Reaction Biology Corporation

[4] = target: T4, panel of 374 wild-type kinases (Homo sapiens, UniProt Q16512); conditions: read-out: % Enzyme Activity (relative to DMSO controls), kinase PKN1/PRK1
T4 construct: purchased Reaction Biology Corporation

[5] = target: T5, panel of 374 wild-type kinases (Homo sapiens, UniProt Q7KZI7); conditions: read-out: % Enzyme Activity (relative to DMSO controls), MARK2/PAR-1Ba
T5 construct: purchased Reaction Biology Corporation

[6] = target: T6, panel of 374 wild-type kinases (Homo sapiens, UniProt Q96S53); conditions: read-out: % Enzyme Activity (relative to DMSO controls), kinase TESK2
T6 construct: purchased Reaction Biology Corporation

[7] = target: T7, panel of 374 wild-type kinases (Homo sapiens, UniProt Q9H4A3); conditions: read-out: % Enzyme Activity (relative to DMSO controls), kinase WNK1
T7 construct: purchased Reaction Biology Corporation

[8] = target: T8, panel of 374 wild-type kinases (Homo sapiens, UniProt Q9UF33); conditions: EPHA6, read-out: % Enzyme Activity (relative to DMSO controls)
T8 construct: purchased Reaction Biology Corporation
T8 sequence (Q9UF33 23-1036): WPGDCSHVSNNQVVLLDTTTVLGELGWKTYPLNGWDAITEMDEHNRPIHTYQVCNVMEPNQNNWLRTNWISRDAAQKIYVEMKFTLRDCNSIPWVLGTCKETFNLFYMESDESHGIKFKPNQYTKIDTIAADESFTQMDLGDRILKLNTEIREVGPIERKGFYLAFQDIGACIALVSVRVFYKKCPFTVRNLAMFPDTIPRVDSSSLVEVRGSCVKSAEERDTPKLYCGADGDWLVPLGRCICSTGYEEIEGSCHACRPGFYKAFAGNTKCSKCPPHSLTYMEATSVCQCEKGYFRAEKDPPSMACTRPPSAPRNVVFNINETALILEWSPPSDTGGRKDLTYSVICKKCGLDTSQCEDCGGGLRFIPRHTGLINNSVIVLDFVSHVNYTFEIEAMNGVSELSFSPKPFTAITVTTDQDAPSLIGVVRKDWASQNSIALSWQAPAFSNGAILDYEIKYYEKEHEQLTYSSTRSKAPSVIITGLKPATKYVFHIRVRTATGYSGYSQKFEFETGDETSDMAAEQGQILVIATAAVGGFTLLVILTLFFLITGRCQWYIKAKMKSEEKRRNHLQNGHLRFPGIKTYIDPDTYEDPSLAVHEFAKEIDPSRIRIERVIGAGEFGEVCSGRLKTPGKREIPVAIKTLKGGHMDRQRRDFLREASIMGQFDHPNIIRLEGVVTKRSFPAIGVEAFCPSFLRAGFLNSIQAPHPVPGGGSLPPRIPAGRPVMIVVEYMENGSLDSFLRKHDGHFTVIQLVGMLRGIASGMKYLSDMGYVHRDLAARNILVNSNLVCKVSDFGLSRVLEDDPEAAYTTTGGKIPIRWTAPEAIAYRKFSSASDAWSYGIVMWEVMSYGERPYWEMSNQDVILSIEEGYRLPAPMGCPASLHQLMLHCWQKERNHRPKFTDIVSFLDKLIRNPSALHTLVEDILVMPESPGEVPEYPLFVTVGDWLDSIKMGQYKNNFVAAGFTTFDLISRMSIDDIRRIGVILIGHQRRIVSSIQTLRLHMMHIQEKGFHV

T1 sequence (O75116 whole entry): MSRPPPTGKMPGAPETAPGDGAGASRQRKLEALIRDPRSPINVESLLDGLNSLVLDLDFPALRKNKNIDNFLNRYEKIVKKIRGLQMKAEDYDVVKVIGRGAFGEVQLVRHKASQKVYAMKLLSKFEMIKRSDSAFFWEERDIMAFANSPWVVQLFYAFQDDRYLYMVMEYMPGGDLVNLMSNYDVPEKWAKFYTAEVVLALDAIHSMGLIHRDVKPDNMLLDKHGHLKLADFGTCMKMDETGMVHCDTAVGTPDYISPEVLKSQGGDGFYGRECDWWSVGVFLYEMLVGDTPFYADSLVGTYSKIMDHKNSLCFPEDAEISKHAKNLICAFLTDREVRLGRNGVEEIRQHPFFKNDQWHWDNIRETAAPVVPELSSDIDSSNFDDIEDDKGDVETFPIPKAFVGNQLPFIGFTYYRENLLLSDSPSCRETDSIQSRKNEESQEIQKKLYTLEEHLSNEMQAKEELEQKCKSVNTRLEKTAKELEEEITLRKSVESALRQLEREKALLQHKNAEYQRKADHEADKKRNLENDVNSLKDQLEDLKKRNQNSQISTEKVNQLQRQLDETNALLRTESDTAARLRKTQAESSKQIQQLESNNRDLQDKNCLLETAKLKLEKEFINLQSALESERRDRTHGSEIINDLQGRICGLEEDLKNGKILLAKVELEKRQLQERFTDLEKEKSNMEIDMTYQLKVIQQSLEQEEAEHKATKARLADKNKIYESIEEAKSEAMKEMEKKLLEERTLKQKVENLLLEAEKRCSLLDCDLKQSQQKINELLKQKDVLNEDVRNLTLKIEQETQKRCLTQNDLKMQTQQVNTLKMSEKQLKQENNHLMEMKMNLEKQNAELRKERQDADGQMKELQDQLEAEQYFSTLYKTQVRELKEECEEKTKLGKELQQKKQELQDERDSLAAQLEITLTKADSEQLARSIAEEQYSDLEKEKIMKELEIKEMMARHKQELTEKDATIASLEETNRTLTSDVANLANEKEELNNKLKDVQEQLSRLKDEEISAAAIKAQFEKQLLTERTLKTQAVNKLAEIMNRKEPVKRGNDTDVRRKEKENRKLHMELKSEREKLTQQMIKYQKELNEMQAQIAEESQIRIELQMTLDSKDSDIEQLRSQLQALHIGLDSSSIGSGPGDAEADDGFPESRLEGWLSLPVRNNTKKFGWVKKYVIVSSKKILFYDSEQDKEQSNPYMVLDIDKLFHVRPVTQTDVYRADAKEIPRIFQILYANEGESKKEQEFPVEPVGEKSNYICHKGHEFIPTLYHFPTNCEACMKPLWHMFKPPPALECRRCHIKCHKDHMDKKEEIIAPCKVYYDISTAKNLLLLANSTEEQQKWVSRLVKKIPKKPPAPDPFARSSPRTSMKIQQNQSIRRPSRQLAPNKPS
T4 sequence (Q16512 whole entry): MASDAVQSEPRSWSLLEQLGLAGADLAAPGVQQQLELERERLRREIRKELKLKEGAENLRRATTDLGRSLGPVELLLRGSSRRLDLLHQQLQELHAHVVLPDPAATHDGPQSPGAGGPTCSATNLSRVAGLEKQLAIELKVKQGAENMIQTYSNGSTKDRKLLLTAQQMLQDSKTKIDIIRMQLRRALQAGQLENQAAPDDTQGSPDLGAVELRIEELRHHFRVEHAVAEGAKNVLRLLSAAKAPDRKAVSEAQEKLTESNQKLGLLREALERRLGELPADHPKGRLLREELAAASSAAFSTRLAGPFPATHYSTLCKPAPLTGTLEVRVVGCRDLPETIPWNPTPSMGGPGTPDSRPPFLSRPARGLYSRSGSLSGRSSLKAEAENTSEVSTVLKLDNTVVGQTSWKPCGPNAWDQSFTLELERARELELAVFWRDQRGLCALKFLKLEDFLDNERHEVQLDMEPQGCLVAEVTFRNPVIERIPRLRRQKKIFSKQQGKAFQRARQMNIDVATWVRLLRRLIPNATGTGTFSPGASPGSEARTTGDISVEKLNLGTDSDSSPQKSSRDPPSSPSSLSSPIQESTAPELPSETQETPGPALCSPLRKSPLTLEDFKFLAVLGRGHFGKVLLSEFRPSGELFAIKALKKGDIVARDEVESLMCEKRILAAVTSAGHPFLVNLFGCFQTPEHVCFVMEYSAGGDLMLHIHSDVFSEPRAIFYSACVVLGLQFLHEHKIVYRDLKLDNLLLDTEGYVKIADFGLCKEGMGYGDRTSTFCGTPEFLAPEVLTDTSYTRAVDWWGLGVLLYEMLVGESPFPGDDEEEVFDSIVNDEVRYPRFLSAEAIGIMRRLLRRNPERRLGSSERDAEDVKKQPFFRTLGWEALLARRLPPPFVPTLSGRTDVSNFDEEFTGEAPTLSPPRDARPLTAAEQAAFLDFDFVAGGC
T7 sequence (Q9H4A3 whole entry): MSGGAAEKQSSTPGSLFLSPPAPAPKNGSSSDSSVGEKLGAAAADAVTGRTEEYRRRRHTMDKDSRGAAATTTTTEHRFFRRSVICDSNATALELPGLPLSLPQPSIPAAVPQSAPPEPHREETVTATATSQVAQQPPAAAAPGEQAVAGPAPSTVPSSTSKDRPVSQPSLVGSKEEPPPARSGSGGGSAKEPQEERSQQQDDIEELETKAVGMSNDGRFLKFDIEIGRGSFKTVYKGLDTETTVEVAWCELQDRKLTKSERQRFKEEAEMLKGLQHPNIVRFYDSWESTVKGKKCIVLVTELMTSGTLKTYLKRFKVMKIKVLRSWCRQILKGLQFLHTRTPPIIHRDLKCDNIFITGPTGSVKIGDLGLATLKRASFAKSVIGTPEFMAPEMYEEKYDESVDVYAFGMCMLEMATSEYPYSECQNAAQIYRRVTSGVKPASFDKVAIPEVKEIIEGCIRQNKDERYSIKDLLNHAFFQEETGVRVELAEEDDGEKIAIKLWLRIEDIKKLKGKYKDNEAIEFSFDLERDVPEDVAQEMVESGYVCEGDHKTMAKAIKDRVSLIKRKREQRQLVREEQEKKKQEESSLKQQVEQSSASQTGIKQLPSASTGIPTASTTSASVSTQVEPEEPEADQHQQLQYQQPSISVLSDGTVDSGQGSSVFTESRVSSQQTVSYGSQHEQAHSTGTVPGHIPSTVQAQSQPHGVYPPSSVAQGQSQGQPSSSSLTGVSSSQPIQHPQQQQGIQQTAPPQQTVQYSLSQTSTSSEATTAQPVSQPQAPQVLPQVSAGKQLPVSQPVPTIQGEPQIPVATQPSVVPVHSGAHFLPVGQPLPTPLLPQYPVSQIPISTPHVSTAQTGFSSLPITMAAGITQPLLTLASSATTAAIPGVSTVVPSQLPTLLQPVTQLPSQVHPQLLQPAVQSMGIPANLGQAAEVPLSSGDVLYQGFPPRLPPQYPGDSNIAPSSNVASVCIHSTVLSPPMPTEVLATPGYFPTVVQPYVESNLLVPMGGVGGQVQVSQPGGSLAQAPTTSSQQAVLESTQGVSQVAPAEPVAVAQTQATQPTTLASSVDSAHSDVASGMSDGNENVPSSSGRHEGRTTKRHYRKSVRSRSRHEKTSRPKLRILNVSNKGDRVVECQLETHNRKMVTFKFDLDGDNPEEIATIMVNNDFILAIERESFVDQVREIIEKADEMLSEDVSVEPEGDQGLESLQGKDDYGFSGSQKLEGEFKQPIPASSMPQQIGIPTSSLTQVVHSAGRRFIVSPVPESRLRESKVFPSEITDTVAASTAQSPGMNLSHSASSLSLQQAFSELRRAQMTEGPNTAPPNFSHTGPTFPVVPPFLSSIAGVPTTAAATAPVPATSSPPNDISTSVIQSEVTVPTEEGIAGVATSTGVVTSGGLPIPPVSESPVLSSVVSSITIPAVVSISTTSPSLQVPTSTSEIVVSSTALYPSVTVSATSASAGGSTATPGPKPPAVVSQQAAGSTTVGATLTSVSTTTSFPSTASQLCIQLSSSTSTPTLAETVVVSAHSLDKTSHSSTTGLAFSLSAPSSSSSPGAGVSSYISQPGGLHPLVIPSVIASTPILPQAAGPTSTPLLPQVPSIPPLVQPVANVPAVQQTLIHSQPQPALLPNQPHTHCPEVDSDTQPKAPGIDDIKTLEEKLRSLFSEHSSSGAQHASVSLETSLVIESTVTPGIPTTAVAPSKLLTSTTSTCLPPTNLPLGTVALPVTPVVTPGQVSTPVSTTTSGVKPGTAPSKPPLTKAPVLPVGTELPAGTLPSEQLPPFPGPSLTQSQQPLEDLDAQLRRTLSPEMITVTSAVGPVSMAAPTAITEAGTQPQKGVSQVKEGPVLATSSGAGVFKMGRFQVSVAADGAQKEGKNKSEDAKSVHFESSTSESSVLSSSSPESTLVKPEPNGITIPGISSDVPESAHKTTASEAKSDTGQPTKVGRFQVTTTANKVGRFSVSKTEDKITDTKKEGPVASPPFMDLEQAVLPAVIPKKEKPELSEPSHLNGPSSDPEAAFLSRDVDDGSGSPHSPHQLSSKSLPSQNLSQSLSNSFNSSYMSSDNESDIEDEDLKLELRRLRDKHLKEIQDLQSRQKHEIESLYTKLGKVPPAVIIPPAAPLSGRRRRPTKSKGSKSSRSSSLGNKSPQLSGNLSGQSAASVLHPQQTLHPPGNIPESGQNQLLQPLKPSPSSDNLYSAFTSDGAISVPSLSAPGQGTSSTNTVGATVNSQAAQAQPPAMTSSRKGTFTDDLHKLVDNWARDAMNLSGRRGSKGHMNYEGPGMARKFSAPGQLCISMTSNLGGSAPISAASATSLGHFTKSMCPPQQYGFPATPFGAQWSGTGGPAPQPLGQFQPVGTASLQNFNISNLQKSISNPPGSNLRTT

| Structure (SMILES) | remaining activity at 5 µM [1] [%] | remaining activity at 5 µM [2] [%] | remaining activity at 5 µM [3] [%] | remaining activity at 5 µM [4] [%] | remaining activity at 5 µM [5] [%] | remaining activity at 5 µM [6] [%] | remaining activity at 5 µM [7] [%] | remaining activity at 5 µM [8] [%] | remaining activity at 10 µM ([1]; 10 uM) [%] | remaining activity at 10 µM ([2]; 10 uM) [%] | remaining activity at 10 µM ([3]; 10 uM) [%] | remaining activity at 10 µM ([4]; 10 uM) [%] | remaining activity at 10 µM ([5]; 10 uM) [%] | remaining activity at 10 µM ([6]; 10 uM) [%] | remaining activity at 10 µM ([7]; 10 uM) [%] | remaining activity at 10 µM ([8]; 10 uM) [%] |
| --- | --- | --- | --- | --- | --- | --- | --- | --- | --- | --- | --- | --- | --- | --- | --- | --- |
| O=C(Nc1cnn(-c2csc(C(=O)NC3COC3)c2)c1)Nc1c(F)cccc1Cl [Compound 25, 4-(4-(3-(2-chloro-6-fluorophenyl)ureido)-1H-pyrazol-1-yl)-N-(oxetan-3-yl)thiophene-2-carboxamide] | 107 | 73 | 103 | 96.5 | 90.7 | 80.1 | 93.3 | 95.7 |  |  |  |  |  |  |  |  |
| O=C(Nc1cnn(-c2csc(C(=O)NC3COC3)c2)c1)Nc1ccccc1Cl [Compound 17, 4-(4-(3-(2-chlorophenyl)ureido)-1H-pyrazol-1-yl)-N-(oxetan-3-yl)thiophene-2-carboxamide] | 100 | 96.7 | 105 | 110 | 104 | 93.3 | 99.7 | 99.5 |  |  |  |  |  |  |  |  |
| Cc1sc(C(=O)NC2COC2)cc1-n1cc(NC(=O)Nc2c(F)cccc2Cl)cn1 [Compound 27, 4-(4-(3-(2-chloro-6-fluorophenyl)ureido)-1H-pyrazol-1-yl)-5-methyl-N-(oxetan-3-yl)thiophene-2-carboxamide] |  |  |  |  |  |  |  |  | 93.6 | 86.6 | 92.5 | 76.8 | 99.8 | 99.2 | 88.9 | 80.2 |
